# In ChEMBL document CHEMBL1201862, “PubChem BioAssay data set” (2004):
#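 Results reflect a 48-hour exposure of cells in 96-well plates to compound at five concentrations. Here, GI50 denotes the concentration required for 50% inhibition of growth.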 Calls of active or inactive are those of the source. No stated cut-off is given here; in the data, active = GI50 up to about 1.1 µM and inactive = higher.
# What was measured:
# Experiment in all cases: DTP human tumour cell line panel, 48 h
# CCRF-CEM = tested on: CCRF-CEM
# COLO 205 = tested on: COLO 205
# SN12C = tested on: SN12C
# PC-3 = tested on: PC-3
# ACHN = tested on: ACHN
# HT-29 = tested on: HT-29
# MOLT-4 = tested on: MOLT-4
# OVCAR-4 = tested on: OVCAR-4
# OVCAR-5 = tested on: OVCAR-5
# SK-MEL-2 = tested on: SK-MEL-2
# SK-OV-3 = tested on: SK-OV-3
# HCT-15 = tested on: HCT-15
# OVCAR-3 = tested on: OVCAR-3
# IGROV-1 = tested on: IGROV-1
# SNB-19 = tested on: SNB-19
# Hs-578T = tested on: Hs-578T
# LOX IMVI = tested on: LOX IMVI
# HCC 2998 = tested on: HCC 2998
# SK-MEL-5 = tested on: SK-MEL-5
SMILES,GI50 (CCRF-CEM),GI50 (COLO 205),GI50 (SN12C),GI50 (PC-3),GI50 (ACHN),GI50 (HT-29),GI50 (MOLT-4),GI50 (OVCAR-4),GI50 (OVCAR-5),GI50 (SK-MEL-2),GI50 (SK-OV-3),GI50 (HCT-15) [µM],GI50 (OVCAR-3),GI50 (IGROV-1),GI50 (SNB-19),GI50 (Hs-578T),GI50 (LOX IMVI),GI50 (HCC 2998),GI50 (SK-MEL-5)
O=C1c2ccsc2-c2cccc3cccc1c23.O=C1c2sccc2-c2cccc3cccc1c23,0.692 µM (active),2.33 µM (inactive),6.67 µM (inactive),4.05 µM (inactive),2.37 µM (inactive),2.11 µM (inactive),1.29 µM (inactive),11 µM (inactive),1.71 µM (inactive),14.8 µM (inactive),18.5 µM (inactive),3.18,10.5 µM (inactive),6.59 µM (inactive),2.93 µM (inactive),0.366 µM (active),3.72 µM (inactive),–,–
COC(=O)/C=C/C1(O)C=CC(=O)C=C1,1.77 µM (inactive),3.4 µM (inactive),1.77 µM (inactive),2.34 µM (inactive),2.1 µM (inactive),2.51 µM (inactive),2.02 µM (inactive),3.94 µM (inactive),5.78 µM (inactive),6.32 µM (inactive),17 µM (inactive),2.66,2.17 µM (inactive),2.69 µM (inactive),3.83 µM (inactive),–,2.07 µM (inactive),7.52 µM (inactive),4.65 µM (inactive)
CC(C)(C)OC(=O)C1C(=O)NC(=O)CC1C(COCc1ccccc1)OCc1ccccc1 (centres undefined),25.5 µM (inactive),–,> 10 µM (inactive),12.4 µM (inactive),23 µM (inactive),18.7 µM (inactive),17.5 µM (inactive),–,12.2 µM (inactive),–,–,21.6,21.8 µM (inactive),22.9 µM (inactive),40.6 µM (inactive),23.1 µM (inactive),19.2 µM (inactive),25.7 µM (inactive),17.3 µM (inactive)
COc1ccc(/C=C(\C#N)c2ccccn2)cc1OC,60.5 µM (inactive),69.2 µM (inactive),53 µM (inactive),22.8 µM (inactive),55.8 µM (inactive),43 µM (inactive),57.4 µM (inactive),73.1 µM (inactive),51.4 µM (inactive),51.2 µM (inactive),29.8 µM (inactive),32.2,86.1 µM (inactive),51.2 µM (inactive),39.8 µM (inactive),–,–,65.2 µM (inactive),25.1 µM (inactive)
OC1(c2ccc(Cl)cc2)c2ccc(CN3CCCC3)cc2C2=NCCN21 (centres undefined),12.2 µM (inactive),10.8 µM (inactive),16.4 µM (inactive),13.3 µM (inactive),16.7 µM (inactive),13.1 µM (inactive),11.6 µM (inactive),12.3 µM (inactive),16.7 µM (inactive),19 µM (inactive),14.2 µM (inactive),17.3,16.1 µM (inactive),14.5 µM (inactive),16.6 µM (inactive),12.3 µM (inactive),13.9 µM (inactive),–,10.5 µM (inactive)
CC1(C)CC(=O)C(C(c2cccc(O)c2O)C2C(=O)CC(C)(C)CC2=O)C(=O)C1,20.1 µM (inactive),> 100 µM (inactive),> 100 µM (inactive),> 100 µM (inactive),> 100 µM (inactive),> 100 µM (inactive),30.3 µM (inactive),> 100 µM (inactive),> 100 µM (inactive),76.6 µM (inactive),> 100 µM (inactive),57.1,97.7 µM (inactive),43.9 µM (inactive),> 100 µM (inactive),74.5 µM (inactive),81.8 µM (inactive),–,> 100 µM (inactive)
O=C(OCC(OC(=O)c1ccccc1)C1CC(C2(O)CCCCC2)C(=O)O1)c1ccccc1 (centres undefined),13.4 µM (inactive),> 25 µM (inactive),> 25 µM (inactive),> 25 µM (inactive),> 25 µM (inactive),14 µM (inactive),6.64 µM (inactive),> 25 µM (inactive),> 25 µM (inactive),> 25 µM (inactive),> 25 µM (inactive),> 25,> 25 µM (inactive),> 25 µM (inactive),> 25 µM (inactive),–,> 25 µM (inactive),> 25 µM (inactive),> 25 µM (inactive)
CCCNC(=S)N/C=C1/C(=O)C=C(C)OC1=O,–,> 100 µM (inactive),> 100 µM (inactive),> 100 µM (inactive),> 100 µM (inactive),> 100 µM (inactive),> 100 µM (inactive),> 100 µM (inactive),> 100 µM (inactive),> 100 µM (inactive),> 100 µM (inactive),> 100,> 100 µM (inactive),> 100 µM (inactive),> 100 µM (inactive),–,> 100 µM (inactive),> 100 µM (inactive),> 100 µM (inactive)
COC1(OC)CC(CO)(CNc2nc(N)nc(Cl)c2C=O)C1,27.8 µM (inactive),> 100 µM (inactive),28.4 µM (inactive),24 µM (inactive),3.48 µM (inactive),55.6 µM (inactive),21.1 µM (inactive),25.2 µM (inactive),> 100 µM (inactive),–,–,26,39.9 µM (inactive),20.7 µM (inactive),43.8 µM (inactive),39.8 µM (inactive),18.5 µM (inactive),28.1 µM (inactive),> 100 µM (inactive)
O=C1C2CN(Cc3ccccc3)CC1CN(CC1CC1)C2,> 100 µM (inactive),> 100 µM (inactive),> 100 µM (inactive),–,> 100 µM (inactive),> 100 µM (inactive),> 100 µM (inactive),> 100 µM (inactive),> 100 µM (inactive),> 100 µM (inactive),> 100 µM (inactive),> 100,> 100 µM (inactive),> 100 µM (inactive),> 100 µM (inactive),–,> 100 µM (inactive),–,> 100 µM (inactive)
C=C(CCC=C(C)C)C1CC=C(C)CC1 (centres undefined),–,26.4 µM (inactive),19.7 µM (inactive),–,17.8 µM (inactive),–,–,–,> 100 µM (inactive),17.7 µM (inactive),> 100 µM (inactive),18.2,29.5 µM (inactive),13.6 µM (inactive),> 100 µM (inactive),20.9 µM (inactive),5.48 µM (inactive),–,16.6 µM (inactive)
O=C(CC1OC(O)C(Cl)=C1Cl)c1cccnc1 (centres undefined),> 100 µM (inactive),> 100 µM (inactive),> 100 µM (inactive),–,> 31.6 µM (inactive),> 42.3 µM (inactive),> 100 µM (inactive),> 100 µM (inactive),> 100 µM (inactive),–,> 100 µM (inactive),> 41.1,> 100 µM (inactive),> 100 µM (inactive),> 100 µM (inactive),–,> 100 µM (inactive),> 71.8 µM (inactive),83.8 µM (inactive)
CN1CC(c2ccccc2)C(O)(C2(c3ccccc3)CN(C)CC(c3ccccc3)C2=O)C(c2ccccc2)C1 (centres undefined),–,93.3 µM (inactive),> 100 µM (inactive),> 100 µM (inactive),> 100 µM (inactive),> 100 µM (inactive),> 100 µM (inactive),> 100 µM (inactive),> 100 µM (inactive),> 100 µM (inactive),–,> 100,> 100 µM (inactive),> 100 µM (inactive),> 100 µM (inactive),23.1 µM (inactive),> 100 µM (inactive),–,> 100 µM (inactive)
COc1ccccc1C[C@@H]1OC2(C=CC(=O)CC2SC(=O)c2ccccc2)O[C@H]1Cc1ccccc1OC (some centres undefined),0.294 µM (active),1.69 µM (inactive),2.52 µM (inactive),1.88 µM (inactive),1.51 µM (inactive),1.65 µM (inactive),0.449 µM (active),1.33 µM (inactive),1.19 µM (inactive),1.71 µM (inactive),2.17 µM (inactive),1.05,1.59 µM (inactive),1.42 µM (inactive),1.91 µM (inactive),1.25 µM (inactive),0.582 µM (active),–,1.62 µM (inactive)
COc1ccc2oc(=N)c(C(=O)Nc3ccccc3)cc2c1,7.23 µM (inactive),30.1 µM (inactive),36.2 µM (inactive),32.9 µM (inactive),13.7 µM (inactive),64.6 µM (inactive),13.8 µM (inactive),45.6 µM (inactive),36.7 µM (inactive),17.2 µM (inactive),10.9 µM (inactive),31,30.5 µM (inactive),17.9 µM (inactive),25.2 µM (inactive),15 µM (inactive),31.6 µM (inactive),–,25.8 µM (inactive)
CCOC(=O)[C@H](Cc1ccc(O)cc1)/N=C1/[C@H]2CCC[C@]1(O)[C@@](C)([N+](=O)[O-])C2,> 100 µM (inactive),> 100 µM (inactive),> 100 µM (inactive),–,> 100 µM (inactive),> 100 µM (inactive),> 100 µM (inactive),> 100 µM (inactive),> 100 µM (inactive),–,> 100 µM (inactive),> 100,> 100 µM (inactive),> 100 µM (inactive),> 100 µM (inactive),> 100 µM (inactive),> 100 µM (inactive),> 100 µM (inactive),> 100 µM (inactive)
O=C(O)c1c(Cl)c(Cl)c(Cl)c(Cl)c1C(=O)Nc1ccc2cn[nH]c2c1,–,> 100 µM (inactive),> 100 µM (inactive),> 100 µM (inactive),> 100 µM (inactive),> 100 µM (inactive),–,> 100 µM (inactive),> 100 µM (inactive),> 100 µM (inactive),> 100 µM (inactive),> 100,65.2 µM (inactive),> 100 µM (inactive),> 100 µM (inactive),39.7 µM (inactive),–,–,> 100 µM (inactive)
